Laboratory results as given in the RepoRT retention time repository (doi:10.1021/acs.analchem.2c02893).

Key:
Conditions in all cases: stereoisomer not certain
[1] = RP, Waters ACQUITY UPLC BEH C18, 100 × 2.1 mm, 1.7 µm, 35 °C, 0.35 mL/min, estimated dead time 0.63 min; A: water + 0.01% formic acid + 5 mM ammonium formate, pH 3.71; B: acetonitrile + 0.01% formic acid, pH 3.71; gradient (min/%B) 0/5 0.5/5 16/95 16.1/99 19/99 19.1/5 21/5
[2] = RP, Thermo Scientific Acclaim RSLC 120 C18, 100 × 2.1 mm, 2.2 µm, 30 °C, 0.2 mL/min, estimated dead time 1.1 min; A: water + 0.1% formic acid, pH 2.6; B: methanol + 0.1% formic acid, pH 2.6; gradient (min/%B) 0/10 4/50 17/95 25/95 25.1/10 30/10
[3] = RP, Waters ACQUITY UPLC BEH C18, 100 × 2.1 mm, 1.7 µm, 30 °C, 0.35 mL/min, estimated dead time 0.63 min; A: water + 0.01% formic acid + 5 mM ammonium formate, pH 3.71; B: acetonitrile + 0.01% formic acid, pH 3.71; gradient (min/%B) 0/10 3/10 22/100 30/100 30.1/10 40/10
[4] = RP, Thermo Scientific Acclaim RSLC 120 C18, 100 × 2.1 mm, 2.2 µm, 30 °C, 0.2 mL/min, estimated dead time 1.1 min; A: 90% water + 10% methanol + 0.01% formic acid + 5 mM ammonium formate, pH 3.61; B: methanol + 0.01% formic acid + 5 mM ammonium formate, pH 3.61; gradient (min/%B) 0/1 1/1 2/39 13/99.9 15/99.9 15.1/1 20.1/1

LC retention time [1] [min] | LC retention time [2] [min] | LC retention time [3] [min] | LC retention time [4] [min] | SMILES
11 | 13.8 | 14.5 | 10.8 | COc1ccc(C(=O)c2ccccc2)c(O)c1 [Benzophenon 3 (=2-Hydroxy-4-methoxybenzophenon)]
7.42 | 7.75 | 10.1 | 7.88 | CCC1OC(=O)CC(O)C(C)C(OC2OC(C)C(OC3CC(C)(O)C(O)C(C)O3)C(N(C)C)C2O)C(CC=O)CC(C)C(=O)C=CC(C)=CC1COC1OC(C)C(O)C(OC)C1OC (centres undefined) [Tylosin]
3.61 | 5.31 | 3.69 | 4.76 | c1ccc2n[nH]nc2c1 [Benzotriazole (BTR)]
10.1 | 11.4 | 13.4 | 9.25 | N#CSCSc1nc2ccccc2s1 [TCMTB]
5.58 | 6.82 | 7.53 | 5.93 | CCOc1ccc(NC(C)=O)cc1 [Phenacetin]
10.7 | 13.1 | 14 | 10.7 | CC(C)Cc1ccc(C(C)C(=O)O)cc1 (centres undefined) [Ibuprofen]
9.17 | 10.9 | 12.2 | 10.3 | COC(=O)Nc1nc2ccc(Sc3ccccc3)cc2[nH]1 [Fenbendazole]
7.28 | 8.57 | 9.84 | 7.46 | CC1CCc2cc(F)cc3c(=O)c(C(=O)O)cn1c23 (centres undefined) [Flumequine]
0.83 | 1.34 | 0.81 | 1.38 | C=CC(N)CCC(=O)O (centres undefined) [Vigabatrin]
11 | 15.4 | 14.4 | 11.8 | Cc1cccc(C)c1OCC(=O)NC(Cc1ccccc1)C(O)CC(Cc1ccccc1)NC(=O)C(C(C)C)N1CCCNC1=O (centres undefined) [Lopinavir]
3.7 | 3.69 | 4.14 | 3.89 | CC(C)NCC(O)COc1cccc2[nH]ccc12 (centres undefined) [Pindolol]
5.91 | 5.8 | 8.09 | 5.91 | CC(C)NCC(O)COc1ccc(COCCOC(C)C)cc1 (centres undefined) [Bisoprolol]
7.21 | 9.38 | 9.74 | 7.83 | CCCCOc1ccc(CC(=O)NO)cc1 [Bufexamac]
4.03 | 5.06 | 5.03 | 4.59 | CC(=O)Nc1ccc(S(=O)(=O)Nc2nc(C)cc(C)n2)cc1 [Sulfamethazine-N4-Acetyl]
2.11 | 2.88 | 1.54 | 3.24 | CN=C(NC#N)NCCSCc1nc[nH]c1C [Cimetidine]
4.79 | 4.94 | 6.53 | 4.93 | COCCc1ccc(OCC(O)CNC(C)C)cc1 (centres undefined) [Metoprolol]
2 | 3.52 | 1.59 | 3.48 | CC(=O)Nc1ccc(O)cc1 [Paracetamol]
8.16 | 10.7 | 10.8 | 8.83 | CCC(C)OC(=O)N1CCCCC1CCO (centres undefined) [Picaridin (Icaridin)]
3.48 | 3.67 | 3.36 | 3.88 | COc1ccc(Cc2cnc(N)nc2N)cc1OC [Diaveridine]

More lines, now with the values behind:

SMILES | LC retention time [1] [min] | LC retention time [2] [min] | LC retention time [3] [min] | LC retention time [4] [min]
Nc1nnc(-c2cccc(Cl)c2Cl)c(N)n1 [Lamotrigine] | 4.66 | 5.17 | 6.41 | 5.31
COP(N)(=O)SC (centres undefined) [Methamidophos] | 1.34 | 2.61 | 1.18 | 2.76
Nc1ncnc2c1ncn2C1OC(CO)C(O)C1O (centres undefined) [Adenosine] | 1.27 | 2.13 | 1.31 | 3.14
CCNc1nc(N)nc(Cl)n1 [Atrazine-desisopropyl] | 3.58 | 5.22 | 3.51 | 4.75
O=P(Oc1ccccc1)(Oc1ccccc1)Oc1ccccc1 [Phosphate-Triphenyl] | 11.8 | 14.3 | 15.5 | 11
COc1cc2c(c(OC)c1OC)-c1ccc(OC)c(=O)cc1C(NC(C)=O)CC2 (centres undefined) [Colchicine] | 5.99 | 7.17 | 8.29 | 6.43
N#CC1CCCN1C(=O)CNC12CC3CC(CC(O)(C3)C1)C2 (centres undefined) [Vildagliptin] | 2.68 | 2.81 | 1.89 | 3.26
Cn1c(=O)c2c(ncn2C)n(C)c1=O [Caffeine] | 3.08 | 4.69 | 2.43 | 4.23
CC12CC3CC(C)(C1)CC(N)(C3)C2 [Memantine] | 5.86 | 6.63 | 8.04 | 6.91
CCOC(=O)c1ccccc1C(=O)OCC [Phthalate-Diethyl] | 9.21 | 10.2 | 12.2 | 8.5
CN1CCCC1c1cccnc1 (centres undefined) [Nicotine] | 1.17 | 1.34 | 1.03 | 2.41
CCN(C)C(=O)Oc1cccc(C(C)N(C)C)c1 (centres undefined) [Rivastigmine] | 4.78 | 4.86 | 6.53 | 4.74
O=C(O)c1cn(C2CC2)c2cc(N3CCNCC3)c(F)cc2c1=O [Ciprofloxacin] | 4.13 | 4.46 | 5.54 | 4.42
CCC(C(N)=O)N1CCCC1=O (centres undefined) [Levetiracetam] | 2.43 | 3.89 | 1.68 | 3.74
CN1CCC23c4c5ccc(O)c4OC2C(O)C=CC3C1C5 (centres undefined) [Morphine (MOR)] | 1.47 | 2.11 | 1.21 | 2.54
NC1Cc2cc3c(cc2C1)OCO3 [MDAI] | 2.95 | 3.47 | 2.34 | 3.81
COC1C=COC2(C)Oc3c(C)c(O)c4c(O)c(c5c(nc6cc(C)ccn65)c4c3C2=O)NC(=O)C(C)=CC=CC(C)C(O)C(C)C(O)C(C)C(OC(C)=O)C1C (centres undefined) [Rifaximin] | 9.87 | 12.5 | 13 | 10.1
CC(N)C12CC3CC(CC(C3)C1)C2 (centres undefined) [Rimantadin] | 5.86 | 6.34 | 7.89 | 6.71
Nc1nc(N)nc(NC2CC2)n1 [Cyromazine] | 1.23 | 2.06 | 1.06 | 2.78
CCNc1nc(Cl)nc(NC(C)C)n1 [Atrazine] | 7.82 | 9.72 | 10.3 | 8.16
C1=CCC(c2cccnc2)NC1 (centres undefined) [Anatabine] | 1.27 | 3.66 | 1.08 | 2.68
CCOP(=O)(OCC)OCC [Phosphate-triethyl] | 5.48 | 6.94 | 7.31 | 6.16
Cn1cnc2c1c(=O)[nH]c(=O)n2C [Theobromine] | 1.65 | 3.37 | 1.23 | 3.28
CNC(=O)ON=C(C)C(C)SC (centres undefined) [Butocarboxim] | 5.7 | 6.82 | 7.64 | 6.07
CC(C)NCC(O)c1ccc(N)c(C#N)c1 (centres undefined) [Cimaterol] | 2.1 | 2.51 | 1.48 | 2.99
COCC(NC(C)=O)C(=O)NCc1ccccc1 (centres undefined) [Lacosamide] | 4.46 | 5.79 | 5.76 | 5.09
COP(=O)(OC)OC=C(Cl)Cl [Dichlorvos] | 6.79 | 8.02 | 9.14 | 7
